Assay results reported in ChEMBL document CHEMBL4673371, “Discovery of BAZ1A bromodomain inhibitors with the aid of virtual screening and activity evaluation” (Bioorg Med Chem Lett, 2021).

Experiments:
[1] = target: T1, Bromodomain adjacent to zinc finger domain protein 1A (Homo sapiens, UniProt Q9NRL2); experiment: Binding affinity to recombinant human N-terminal His6-tagged BAZ1A (1446 to 1516 residues) expressed in Escherichia coli BL21 (DE3) cells assessed as change in melting temperature at 25 uM by DSF assay
T1 sequence (Q9NRL2 whole entry, the tested form may be a part): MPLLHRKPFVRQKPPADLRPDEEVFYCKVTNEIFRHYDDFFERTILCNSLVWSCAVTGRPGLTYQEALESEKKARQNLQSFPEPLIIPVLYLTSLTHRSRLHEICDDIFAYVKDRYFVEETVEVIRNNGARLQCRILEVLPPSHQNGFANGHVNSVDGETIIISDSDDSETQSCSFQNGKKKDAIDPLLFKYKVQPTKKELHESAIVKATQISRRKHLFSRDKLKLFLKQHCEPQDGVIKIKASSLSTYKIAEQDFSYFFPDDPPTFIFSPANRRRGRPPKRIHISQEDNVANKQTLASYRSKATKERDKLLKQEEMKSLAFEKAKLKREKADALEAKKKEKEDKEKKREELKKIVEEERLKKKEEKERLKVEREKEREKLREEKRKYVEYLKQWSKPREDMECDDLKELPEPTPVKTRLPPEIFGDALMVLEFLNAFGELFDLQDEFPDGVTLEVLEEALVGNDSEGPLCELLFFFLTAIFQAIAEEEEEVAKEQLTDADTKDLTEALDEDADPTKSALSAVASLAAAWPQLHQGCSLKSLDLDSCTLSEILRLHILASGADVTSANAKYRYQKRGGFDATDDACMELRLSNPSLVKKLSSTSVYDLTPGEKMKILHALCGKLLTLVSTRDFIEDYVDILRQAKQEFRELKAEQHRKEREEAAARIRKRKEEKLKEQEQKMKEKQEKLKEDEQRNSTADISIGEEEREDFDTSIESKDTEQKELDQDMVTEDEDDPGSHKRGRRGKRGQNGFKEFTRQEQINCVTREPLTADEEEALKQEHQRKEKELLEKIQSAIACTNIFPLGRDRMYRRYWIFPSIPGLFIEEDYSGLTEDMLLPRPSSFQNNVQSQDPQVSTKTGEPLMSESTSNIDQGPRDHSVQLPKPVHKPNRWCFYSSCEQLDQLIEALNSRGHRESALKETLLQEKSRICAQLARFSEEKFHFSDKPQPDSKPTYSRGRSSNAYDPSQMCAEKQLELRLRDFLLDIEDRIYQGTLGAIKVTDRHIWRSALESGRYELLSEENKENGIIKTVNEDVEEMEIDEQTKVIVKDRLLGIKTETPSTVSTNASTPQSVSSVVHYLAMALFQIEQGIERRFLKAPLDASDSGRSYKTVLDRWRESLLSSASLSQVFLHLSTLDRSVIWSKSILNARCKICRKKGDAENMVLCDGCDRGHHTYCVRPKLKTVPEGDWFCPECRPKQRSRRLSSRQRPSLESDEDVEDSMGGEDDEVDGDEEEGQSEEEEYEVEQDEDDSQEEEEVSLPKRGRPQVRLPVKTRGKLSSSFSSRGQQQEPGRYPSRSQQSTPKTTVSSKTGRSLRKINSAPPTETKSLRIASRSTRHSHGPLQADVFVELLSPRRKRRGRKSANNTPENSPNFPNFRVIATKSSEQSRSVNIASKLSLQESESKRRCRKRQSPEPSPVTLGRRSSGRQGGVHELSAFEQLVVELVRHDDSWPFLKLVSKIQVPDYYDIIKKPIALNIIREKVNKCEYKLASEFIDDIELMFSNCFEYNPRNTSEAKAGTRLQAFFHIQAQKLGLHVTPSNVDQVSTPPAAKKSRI

[2] = target: T1, Bromodomain adjacent to zinc finger domain protein 1A; experiment: Binding affinity to recombinant human N-terminal His6-tagged BAZ1A (1446 to 1516 residues) expressed in Escherichia coli BL21 (DE3) cells by MST assay
[3] = Cytotoxicity against human H820 cells assessed as reduction in cell viability incubated for 72 hrs by MTT assay; type: functional, cell-based; conditions: NCI-H820, 72 h
[4] = tested on: Bel-7402; experiment: Cytotoxicity against human BEL7402 cells assessed as reduction in cell viability incubated for 72 hrs by MTT assay; type: functional, cell-based; conditions: Bel-7402, 72 h
[5] = tested on: BT-474; experiment: Cytotoxicity against human BT474 cells assessed as reduction in cell viability incubated for 72 hrs by MTT assay; type: functional, cell-based; conditions: BT-474, 72 h
[6] = tested on: NCI-H1975; experiment: Cytotoxicity against human H1975 cells assessed as reduction in cell viability incubated for 72 hrs by MTT assay; type: functional, cell-based; conditions: NCI-H1975, 72 h
[7] = tested on: THP-1; experiment: Cytotoxicity against human THP-1 cells assessed as reduction in cell viability incubated for 72 hrs by MTT assay; type: functional, cell-based; conditions: THP-1, 72 h
[8] = tested on: ZR-75-30; experiment: Cytotoxicity against human ZR-75-30 cells assessed as reduction in cell viability incubated for 72 hrs by MTT assay; type: functional, cell-based; conditions: ZR-75-30, 72 h
[9] = tested on: U-87 MG; experiment: Cytotoxicity against human U87 cells assessed as reduction in cell viability incubated for 72 hrs by MTT assay; type: functional, cell-based, U-87MG ATCC

Compound | ΔTm [1] | Kd [2] | other results
O=C(Nc1ccc(C(F)(F)F)cc1)Nc1cccc(O)c1 | 3.15 °C | 13.2 µM | –
O=C(NCC(=O)N1CCCCC1)Nc1ccc2nnsc2c1 | 1.2 °C | 25.6 µM | –
NC(C(=O)Nc1ccc2nnsc2c1)c1ccccc1 (centres undefined) | 1.25 °C | 1.87 µM | –
O=C(Nc1cccc([N+](=O)[O-])c1)Nc1ccc2c(c1)C(=O)CC2 | 1.16 °C | 22 µM | –
CC(NC(=O)Nc1ccc2nnsc2c1)c1cccc(F)c1 (centres undefined) | 1.62 °C | 8.2 µM | –
O=C(Nc1ccc2nnsc2c1)N(O)c1ccccc1 | 1.68 °C | 16.3 µM | –
O=C(Nc1ccc(Cl)c(Cl)c1)Nc1ccc2nnsc2c1 | 2.59 °C | 1.57 µM | –
O=C(Nc1ccc2cncnc2c1)Nc1ccc2nnsc2c1 | 1.94 °C | 3.93 µM | –

Further lines, with some results ahead:

ΔTm [1] | Kd [2] | Compound | other results
1.62 °C | 1.36 µM | O=C(Nc1cccc([N+](=O)[O-])c1)Nc1ccc2c(c1)OCCO2 | –
1.9 °C | 26.6 µM | Cc1ccc2nc(-c3ccc(NC(=O)c4ccc([N+](=O)[O-])o4)cc3)oc2c1 | –
1.64 °C | 3.09 µM | O=C(Nc1cccc([N+](=O)[O-])c1)Nc1ccc2nccnc2c1 | –
2.73 °C | 0.52 µM | O=C(Nc1cccc([N+](=O)[O-])c1)Nc1nc(-c2ccccc2)cs1 | IC50 [3]: 73.7 µM; IC50 [4]: > 100 µM; IC50 [5]: 10.7 µM; IC50 [6]: 7.7 µM; IC50 [7]: 5.08 µM; IC50 [8]: 4.29 µM; IC50 [9]: > 100 µM
1.61 °C | 15.2 µM | C=C(C)C(=O)Nc1ccc(-c2nc3cc(NC(=O)C(=C)C)ccc3[nH]2)cc1 | –
1.56 °C | 1.76 µM | CN(C)c1ccc(NC(=O)Nc2cccc([N+](=O)[O-])c2)cc1 | –
1.63 °C | 6.68 µM | O=C(Nc1cccc([N+](=O)[O-])c1)Nc1ccc2cccnc2c1 | –
1.46 °C | 57.6 µM | CN(Cc1cccc([N+](=O)[O-])c1)C(=O)Nc1ccc2nnsc2c1 | –
